Converted amounts (≈) assume the structure as drawn.
Key:
Assay in all cases: Antibacterial activity in vitro, MIC by broth microdilution
[1] = test system: E. faecalis Enfa_29212; format: cell-based; conditions: Table 5, Strain ID D: E. faecalis Enfa_29212; unit assumed
Experimental: (§1) Representative compounds of the present invention were assayed in vitro for antibacterial activity against the bacterial isolates listed in Table 1 as follows:
(§2) The bacterial isolates listed in Table 1 were cultivated from −70° C. frozen stocks by two consecutive overnight passages (P1, P2) at 35° C. on 5% blood agar (Remel, Lenexa, Kans.). Chocolate agar (Remel) is used for Haemophilus influenzae. H. influenzae and Streptococcus pneumoniae are incubated in 5-10% CO2.
(§3) To determine the amount of solvent to be used to give the desired final concentration, the formula “weight obtained in mg/final concentration in mg/mL” will be used. It will give the amount of solvent in mL needed to be added to give the desired concentration. For example, if 2.5 mg/mL is the desired concentration and the weight of compound is 13.7 mg, then the amount of solvent to be added is 3.94 mL (13.7 mg/2.5 mg/mL=3.94 mLs). Methanol is used as the solvent to dissolve the test compounds. Further dilution of stock is done in sterile, deioinzed water. Drug stocks are kept frozen at −70° C., protected from light.
(§4) MICs are determined by the broth microdilution method in accordance with the NCCLS guidelines. In brief, organism suspensions are adjusted to a 0.5 McFarland standard to yield a final inoculum between 3×10^5 and 7×10^5 CFU/mL. Drug dilutions and inocula are made in sterile, cation adjusted Mueller-Hinton Broth (CAMHB) (Remel) for all but S. pneumoniae [CAMHB with 2-5% lysed horse blood (Remel)] and H. influenzae [Haemophilus Test Medium (Remel)]. An inoculum volume of 100 μl is added to wells containing 100 μl of broth with 2-fold serial dilutions of drug. All inoculated microdilution trays are incubated in ambient air at 35° C. for 18-24 hours, except for S. pneumoniae, and H. influenzae (both at 5-10% CO2).
(§5) Following appropriate incubation, the MIC is determined and the MIC is defined as the lowest concentration of the drug that prevented visible growth.

[2] = test system: S. epidermidis Step_14990; format: cell-based; conditions: Table 5, Strain ID B: S. epidermidis Step_14990; unit assumed
Experimental: as §1, §2, §3, §4, §5

[3] = test system: S. aureus Stau_29213; format: cell-based; conditions: Table 5, Strain ID A: S. aureus Stau_29213; unit assumed
Experimental: as §1, §2, §3, §4, §5

[4] = test system: S. pyogenes Stpy_8668; format: cell-based; conditions: Table 5, Strain ID E: S. pyogenes Stpy_8668
Experimental: as §1, §2, §3, §4, §5

[5] = test system: S. epidermidis Step_f50654 Pen S; format: cell-based; conditions: Table 5, Strain ID C: S. epidermidis Step_f50654; unit assumed
Experimental: as §1, §2, §3, §4, §5

[6] = test system: S. pneumoniae Stpn_297-749 Pen R; format: cell-based, Streptococcus pneumoniae; conditions: Table 5, Strain ID G: S. pneumoniae Stpn_297-749
Experimental: as §1, §2, §3, §4, §5

[7] = test system: S. pneumoniae Stpn_49619; format: cell-based, Streptococcus pneumoniae; conditions: Table 5, Strain ID F: S. pneumoniae Stpn_49619
Experimental: as §1, §2, §3, §4, §5

[8] = test system: S. pneumoniae Stpn_Erm 6849; format: cell-based, Streptococcus pneumoniae; conditions: Table 5, Strain ID I: S. pneumoniae Stpn_Erm 6849; unit assumed
Experimental: as §1, §2, §3, §4, §5

[9] = test system: S. pneumoniae Stpn_Erm S 4297; format: cell-based, Streptococcus pneumoniae; conditions: Table 5, Strain ID J: S. pneumoniae Stpn_Erm S 4297
Experimental: as §1, §2, §3, §4, §5

[10] = test system: S. pneumoniae Stpn_Mef S 3427; format: cell-based, Streptococcus pneumoniae; conditions: Table 5, Strain ID L: S. pneumoniae Stpn_Mef S 3427
Experimental: as §1, §2, §3, §4, §5

[11] = test system: S. pneumoniae Stpn_280-962 Pen S; format: cell-based, Streptococcus pneumoniae; conditions: Table 5, Strain ID H: S. pneumoniae Stpn_280-962
Experimental: as §1, §2, §3, §4, §5

[12] = test system: S. pneumoniae Stpn_Mef 5654; format: cell-based, Streptococcus pneumoniae; conditions: Table 5, Strain ID K: S. pneumoniae Stpn_Mef 5654; unit assumed
Experimental: as §1, §2, §3, §4, §5

[13] = test system: H. influenzae Hain_49247; format: cell-based, Haemophilus influenzae; conditions: Table 5, Strain ID M: H. influenzae Hain_49247; unit assumed
Experimental: as §1, §2, §3, §4, §5

Row | Structure (SMILES) | MIC [1] | MIC [2] | MIC [3] | MIC [4] | MIC [5] | MIC [6] | MIC [7] | MIC [8] | MIC [9] | MIC [10] | MIC [11] | MIC [12] | MIC [13] | MIC ([9]; unit assumed) | MIC ([10]; unit assumed) | MIC ([4]; unit assumed) | MIC ([6]; unit assumed) | MIC ([7]; unit assumed) | MIC ([11]; unit assumed)
1 | C=C[C@]12OC(=O)N(CCCCn3cnc(-c4cccnc4)c3)[C@@H]1[C@@H](C)C(=O)[C@H](C)C[C@](C)(OC)[C@H](OC1O[C@H](C)C[C@H](N(C)C)[C@H]1O)[C@@H](C)C(=O)[C@](C)(F)C(=O)O[C@@H]2CC (stereo partly drawn) [Example 49, (3aS,4R,7S,9R,10R,11S,13R,15R,15aR)-4-ethyl-7-fluoro-11-methoxy-7,9,11,13,15-pentamethyl-2,6,8,14-tetraoxo-1-[4-(4-pyridin-3-yl-1H-imidazol-1-yl)butyl]-3a-vinyltetradecahydro-2H-oxacyclotetradecino[4,3-d][1,3]oxazol-10-yl 3,4,6-trideoxy-3-(dimethylamino)-D-xylo-hexopyranoside] | 0.1 mg/L (≈ 0.119 µM) | 0.2 mg/L (≈ 0.238 µM) | 0.2 mg/L (≈ 0.238 µM) | ≦0.05 | 0.2 mg/L (≈ 0.238 µM) | ≦0.05 | ≦0.05 | 0.1 mg/L (≈ 0.119 µM) | ≦0.05 | ≦0.05 | ≦0.05 | 0.78 mg/L (≈ 0.926 µM) | 6.25 mg/L (≈ 7.42 µM) |  |  |  |  |  | 
2 | CC[C@H]1OC(=O)[C@@](C)(F)C(=O)[C@H](C)[C@@H](OC2O[C@H](C)C[C@H](N(C)C)[C@H]2O)[C@@](C)(OC)C[C@@H](C)C(=O)[C@H](C)[C@H]2N(CCCCn3cnc(-c4ccc(C)nc4)c3)C(=O)O[C@]12CC (stereo partly drawn) [Example 30, (3aS,4R,7S,9R,10R,11S,13R,15R,15aR)-3a,4-diethyl-7-fluoro-11-methoxy-7,9,11,13,15-pentamethyl-1-{4-[4-(6-methylpyridin-3-yl)-1H-imidazol-1-yl]butyl}-2,6,8,14-tetraoxotetradecahydro-2H-oxacyclotetradecino[4,3-d][1,3]oxazol-10-yl 3,4,6-trideoxy-3-(dimethylamino)-D-xylo-hexopyranoside] | 0.2 mg/L (≈ 0.233 µM) | 0.2 mg/L (≈ 0.233 µM) | 0.2 mg/L (≈ 0.233 µM) | ≦0.05 | 0.4 mg/L (≈ 0.466 µM) | ≦0.05 | ≦0.05 | 0.4 mg/L (≈ 0.466 µM) |  |  | ≦0.05 | 0.78 mg/L (≈ 0.909 µM) | 6.25 mg/L (≈ 7.28 µM) | 0.1 mg/L (≈ 0.117 µM) | 0.1 mg/L (≈ 0.117 µM) |  |  |  | 
3 | CC[C@H]1OC(=O)[C@H](C)C(=O)[C@H](C)[C@@H](OC2O[C@H](C)C[C@H](N(C)C)[C@H]2O)[C@@](C)(OC)C[C@@H](C)C(=O)[C@H](C)[C@H]2N(CCCCc3ccnc4ccccc34)C(=O)O[C@]12CC (stereo partly drawn) [Example 15, (3aS,4R,7R,9R,10R,11S,13R,15R,15aR)-3a,4-diethyl-11-methoxy-7,9,11,13,15-pentamethyl-2,6,8,14-tetraoxo-1-(4-quinolin-4-ylbutyl)tetradecahydro-2H-oxacyclotetradecino[4,3-d][1,3]oxazol-10-yl 3,4,6-trideoxy-3-(dimethylamino)-D-xylo-hexopyranoside] | 0.1 mg/L (≈ 0.123 µM) | 0.2 mg/L (≈ 0.247 µM) | 0.4 mg/L (≈ 0.494 µM) | ≦0.05 | 0.4 mg/L (≈ 0.494 µM) | ≦0.05 | ≦0.05 | 1.56 mg/L (≈ 1.93 µM) |  | ≦0.05 | ≦0.05 | 0.2 mg/L (≈ 0.247 µM) | 3.13 mg/L (≈ 3.86 µM) | 0.1 mg/L (≈ 0.123 µM) |  |  |  |  | 
4 | C=C[C@]12OC(=O)N(CCCCn3cnc(-c4cccnc4)c3)[C@@H]1[C@@H](C)C(=O)[C@H](C)C[C@@](C)(OC)[C@H](OC1O[C@H](C)C[C@H](N(C)C)[C@H]1O)[C@@H](C)C(=O)[C@@H](C)C(=O)O[C@@H]2CC (stereo partly drawn) [Example 48, (3aS,4R,7R,9R,10R,11R,13R,15R,15aR)-4-ethyl-11-methoxy-7,9,11,13,15-pentamethyl-2,6,8,14-tetraoxo-1-[4-(4-pyridin-3-yl-1H-imidazol-1-yl)butyl]-3a-vinyltetradecahydro-2H-oxacyclotetradecino[4,3-d][1,3]oxazol-10-yl 3,4,6-trideoxy-3-(dimethylamino)-D-xylo-hexopyranoside] | 0.1 mg/L (≈ 0.121 µM) | 0.2 mg/L (≈ 0.243 µM) | 0.2 mg/L (≈ 0.243 µM) | ≦0.05 | 0.2 mg/L (≈ 0.243 µM) | ≦0.05 | ≦0.05 | 0.4 mg/L (≈ 0.485 µM) | ≦0.05 |  | ≦0.05 | 0.78 mg/L (≈ 0.947 µM) | 3.13 mg/L (≈ 3.8 µM) |  | 0.1 mg/L (≈ 0.121 µM) |  |  |  | 
5 | CC[C@H]1OC(=O)[C@H](C)C(=O)[C@H](C)[C@@H](OC2O[C@H](C)C[C@H](N(C)C)[C@H]2O)[C@@](C)(OC)C[C@@H](C)C(=O)[C@H](C)[C@H]2N(CCCCn3cnc(-c4ccc(C)nc4)c3)C(=O)O[C@]12CC (stereo partly drawn) [Example 29, (3aS,4R,7R,9R,10R,11S,13R,15R,15aR)-3a,4-diethyl-11-methoxy-7,9,11,13,15-pentamethyl-1-{4-[4-(6-methylpyridin-3-yl)-1H-imidazol-1-yl]butyl}-2,6,8,14-tetraoxotetradecahydro-2H-oxacyclotetradecino[4,3-d][1,3]oxazol-10-yl 3,4,6-trideoxy-3-(dimethylamino)-D-xylo-hexopyranoside] | 0.2 mg/L (≈ 0.238 µM) | 0.2 mg/L (≈ 0.238 µM) | 0.4 mg/L (≈ 0.476 µM) | ≦0.05 | 0.4 mg/L (≈ 0.476 µM) | ≦0.05 | ≦0.05 | 1.56 mg/L (≈ 1.86 µM) |  |  | ≦0.05 | 0.78 mg/L (≈ 0.928 µM) | 6.25 mg/L (≈ 7.44 µM) | 0.2 mg/L (≈ 0.238 µM) | 0.2 mg/L (≈ 0.238 µM) |  |  |  | 
6 | CC[C@H]1OC(=O)[C@H](C)C(=O)[C@H](C)[C@@H](OC2O[C@H](C)C[C@H](N(C)C)[C@H]2O)[C@@](C)(OC)C[C@@H](C)C(=O)[C@H](C)[C@H]2N(CCCOc3ccc(-c4cccnc4)cc3)C(=O)O[C@]12CC (stereo partly drawn) [Example 36, (3aS,4R,7R,9R,10R,11S,13R,15R,15aR)-3a,4-diethyl-11-methoxy-7,9,11,13,15-pentamethyl-2,6,8,14-tetraoxo-1-[3-(4-pyridin-3-ylphenoxy)propyl]-tetradecahydro-2H-oxacyclotetradecino[4,3-d][1,3]oxazol-10-yl 3,4,6-trideoxy-3-(dimethylamino)-D-xylo-hexopyranoside] | 0.78 mg/L (≈ 0.931 µM) | 1.56 mg/L (≈ 1.86 µM) | 6.25 mg/L (≈ 7.46 µM) |  | 0.78 mg/L (≈ 0.931 µM) |  |  | 0.1 mg/L (≈ 0.119 µM) |  |  |  | 12.5 mg/L (≈ 14.9 µM) | 0.2 mg/L (≈ 0.239 µM) | 12.5 mg/L (≈ 14.9 µM) | 0.78 mg/L (≈ 0.931 µM) | 0.4 mg/L (≈ 0.477 µM) | 0.1 mg/L (≈ 0.119 µM) | 25 mg/L (≈ 29.8 µM) | 0.1 mg/L (≈ 0.119 µM)
